Measured values taken from ChEMBL document CHEMBL2396647, “The synergic modeling for the binding of fluoroquinolone antibiotics to the hERG potassium channel” (Bioorg Med Chem Lett, 2013).

Assays:
Type in all cases: cell-based
[1] = target: T1, Voltage-gated inwardly rectifying potassium channel KCNH2 (Homo sapiens, UniProt Q12809, F656A); assay: Binding affinity to human ERG F656A tetrameric mutant expressed in HEK293 cells assessed as inhibition of tail current measured upon repolarization to -120 mV by patch clamp method
T1 sequence (Q12809 whole entry F656A): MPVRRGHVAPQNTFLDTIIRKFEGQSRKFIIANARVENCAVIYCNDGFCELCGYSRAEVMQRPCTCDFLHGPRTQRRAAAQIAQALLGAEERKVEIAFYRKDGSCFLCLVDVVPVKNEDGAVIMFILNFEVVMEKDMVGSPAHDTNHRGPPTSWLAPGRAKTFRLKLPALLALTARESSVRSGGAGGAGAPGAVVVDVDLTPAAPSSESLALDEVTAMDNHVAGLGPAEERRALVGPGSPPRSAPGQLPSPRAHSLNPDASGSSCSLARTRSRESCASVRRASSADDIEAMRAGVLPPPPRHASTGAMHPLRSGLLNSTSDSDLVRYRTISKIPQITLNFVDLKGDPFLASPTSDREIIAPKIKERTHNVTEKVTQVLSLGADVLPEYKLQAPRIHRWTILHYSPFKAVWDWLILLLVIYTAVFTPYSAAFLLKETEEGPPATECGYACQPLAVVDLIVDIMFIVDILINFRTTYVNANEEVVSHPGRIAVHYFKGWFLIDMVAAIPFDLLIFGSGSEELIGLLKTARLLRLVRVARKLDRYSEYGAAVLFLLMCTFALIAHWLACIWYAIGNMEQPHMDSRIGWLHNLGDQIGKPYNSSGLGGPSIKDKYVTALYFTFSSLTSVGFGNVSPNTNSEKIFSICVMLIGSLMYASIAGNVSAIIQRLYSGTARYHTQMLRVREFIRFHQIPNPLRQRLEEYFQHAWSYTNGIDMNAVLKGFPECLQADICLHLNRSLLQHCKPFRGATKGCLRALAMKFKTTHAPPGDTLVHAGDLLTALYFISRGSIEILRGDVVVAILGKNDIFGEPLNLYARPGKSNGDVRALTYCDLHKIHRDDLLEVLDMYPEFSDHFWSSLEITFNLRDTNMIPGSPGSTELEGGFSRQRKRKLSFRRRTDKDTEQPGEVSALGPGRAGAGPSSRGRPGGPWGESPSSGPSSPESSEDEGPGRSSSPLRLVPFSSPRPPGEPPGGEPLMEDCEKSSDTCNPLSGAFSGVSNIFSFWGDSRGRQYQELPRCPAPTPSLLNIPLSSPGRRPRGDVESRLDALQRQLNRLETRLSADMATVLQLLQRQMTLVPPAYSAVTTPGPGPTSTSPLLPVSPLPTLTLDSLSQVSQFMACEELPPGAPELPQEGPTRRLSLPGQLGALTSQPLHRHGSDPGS

[2] = target: T1, Voltage-gated inwardly rectifying potassium channel KCNH2; assay: Binding affinity to human ERG F656A tandem dimeric mutant expressed in HEK293 cells assessed as inhibition of tail current measured upon repolarization to -120 mV by patch clamp method
[3] = target: Voltage-gated inwardly rectifying potassium channel KCNH2 (Homo sapiens, UniProt Q12809, S624A); assay: Binding affinity to human ERG S624A tetrameric mutant expressed in HEK293 cells assessed as inhibition of tail current measured upon repolarization to -40 mV by patch clamp method
Sequence of Voltage-gated inwardly rectifying potassium channel KCNH2 (Homo sapiens, UniProt Q12809, S624A) (Q12809 whole entry S624A): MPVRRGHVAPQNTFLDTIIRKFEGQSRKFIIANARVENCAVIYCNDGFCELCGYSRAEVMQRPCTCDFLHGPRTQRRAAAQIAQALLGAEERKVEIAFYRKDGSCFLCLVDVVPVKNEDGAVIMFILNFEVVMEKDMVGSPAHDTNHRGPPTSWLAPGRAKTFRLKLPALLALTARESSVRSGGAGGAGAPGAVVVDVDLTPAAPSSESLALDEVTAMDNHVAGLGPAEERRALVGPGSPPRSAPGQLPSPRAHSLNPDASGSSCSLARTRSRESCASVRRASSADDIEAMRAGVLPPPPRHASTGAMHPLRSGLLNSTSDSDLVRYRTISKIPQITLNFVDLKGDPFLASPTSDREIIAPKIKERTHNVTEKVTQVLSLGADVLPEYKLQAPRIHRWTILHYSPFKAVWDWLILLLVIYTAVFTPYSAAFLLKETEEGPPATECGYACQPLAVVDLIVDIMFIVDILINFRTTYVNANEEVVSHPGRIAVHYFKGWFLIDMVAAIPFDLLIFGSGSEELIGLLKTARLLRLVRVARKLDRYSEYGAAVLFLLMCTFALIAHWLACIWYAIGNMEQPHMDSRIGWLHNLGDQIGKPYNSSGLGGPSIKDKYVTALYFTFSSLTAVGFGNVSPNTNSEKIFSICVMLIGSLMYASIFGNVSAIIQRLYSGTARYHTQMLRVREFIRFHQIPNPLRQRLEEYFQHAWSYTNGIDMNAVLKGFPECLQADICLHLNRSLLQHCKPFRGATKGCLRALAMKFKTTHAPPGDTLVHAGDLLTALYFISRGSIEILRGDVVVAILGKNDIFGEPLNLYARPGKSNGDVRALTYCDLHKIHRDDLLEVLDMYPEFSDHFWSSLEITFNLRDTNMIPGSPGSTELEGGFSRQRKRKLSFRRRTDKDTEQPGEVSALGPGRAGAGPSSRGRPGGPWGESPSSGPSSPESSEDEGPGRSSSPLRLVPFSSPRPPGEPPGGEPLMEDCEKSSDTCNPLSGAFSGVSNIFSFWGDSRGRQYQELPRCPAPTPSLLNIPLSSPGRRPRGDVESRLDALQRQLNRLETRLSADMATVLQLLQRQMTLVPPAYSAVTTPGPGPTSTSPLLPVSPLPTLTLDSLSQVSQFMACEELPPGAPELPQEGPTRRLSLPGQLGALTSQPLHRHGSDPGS

[4] = target: T2, Voltage-gated inwardly rectifying potassium channel KCNH2 (Homo sapiens, UniProt Q12809, Y652A); assay: Binding affinity to human ERG Y652A tetrameric mutant expressed in HEK293 cells assessed as inhibition of tail current measured upon repolarization to -40 mV by patch clamp method
T2 sequence (Q12809 whole entry Y652A): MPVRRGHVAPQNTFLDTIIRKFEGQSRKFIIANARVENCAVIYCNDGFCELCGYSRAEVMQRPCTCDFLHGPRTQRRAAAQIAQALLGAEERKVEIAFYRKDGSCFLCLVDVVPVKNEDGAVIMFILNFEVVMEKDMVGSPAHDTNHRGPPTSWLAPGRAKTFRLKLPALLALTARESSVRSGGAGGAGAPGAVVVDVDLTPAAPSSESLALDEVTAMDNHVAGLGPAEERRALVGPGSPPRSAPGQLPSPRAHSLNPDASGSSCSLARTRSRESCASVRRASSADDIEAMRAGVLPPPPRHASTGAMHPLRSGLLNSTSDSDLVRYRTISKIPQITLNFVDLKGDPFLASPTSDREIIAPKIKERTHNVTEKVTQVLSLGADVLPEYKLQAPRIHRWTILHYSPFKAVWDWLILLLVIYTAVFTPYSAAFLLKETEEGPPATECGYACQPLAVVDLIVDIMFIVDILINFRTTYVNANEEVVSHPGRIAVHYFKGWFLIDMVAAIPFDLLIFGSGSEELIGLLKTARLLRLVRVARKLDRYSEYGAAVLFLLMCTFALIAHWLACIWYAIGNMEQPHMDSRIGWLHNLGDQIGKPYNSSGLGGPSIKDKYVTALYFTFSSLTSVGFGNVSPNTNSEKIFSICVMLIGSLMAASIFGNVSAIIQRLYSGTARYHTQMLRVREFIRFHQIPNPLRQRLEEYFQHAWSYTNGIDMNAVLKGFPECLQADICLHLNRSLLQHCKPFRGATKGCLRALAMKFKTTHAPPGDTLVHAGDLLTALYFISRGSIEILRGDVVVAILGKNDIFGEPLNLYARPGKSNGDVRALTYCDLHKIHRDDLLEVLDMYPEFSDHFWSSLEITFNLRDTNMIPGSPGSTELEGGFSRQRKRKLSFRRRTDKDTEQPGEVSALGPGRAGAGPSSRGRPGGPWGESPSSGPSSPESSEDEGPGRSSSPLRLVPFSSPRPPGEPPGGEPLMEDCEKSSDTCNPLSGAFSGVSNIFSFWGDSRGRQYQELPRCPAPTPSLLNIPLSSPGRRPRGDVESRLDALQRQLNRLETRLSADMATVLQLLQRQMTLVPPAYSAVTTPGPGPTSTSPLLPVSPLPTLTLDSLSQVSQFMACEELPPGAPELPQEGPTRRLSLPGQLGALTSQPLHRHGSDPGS

[5] = target: T2, Voltage-gated inwardly rectifying potassium channel KCNH2; assay: Binding affinity to human ERG Y652A tandem dimeric mutant expressed in HEK293 cells assessed as inhibition of tail current measured upon repolarization to -40 mV by patch clamp method
[6] = target: Voltage-gated inwardly rectifying potassium channel KCNH2 (Homo sapiens, UniProt Q12809); assay: Binding affinity to wild type human ERG expressed in HEK293 cells assessed as inhibition of tail current measured upon repolarization to -40 mV by patch clamp method
Sequence of Voltage-gated inwardly rectifying potassium channel KCNH2 (Homo sapiens, UniProt Q12809) (Q12809 whole entry): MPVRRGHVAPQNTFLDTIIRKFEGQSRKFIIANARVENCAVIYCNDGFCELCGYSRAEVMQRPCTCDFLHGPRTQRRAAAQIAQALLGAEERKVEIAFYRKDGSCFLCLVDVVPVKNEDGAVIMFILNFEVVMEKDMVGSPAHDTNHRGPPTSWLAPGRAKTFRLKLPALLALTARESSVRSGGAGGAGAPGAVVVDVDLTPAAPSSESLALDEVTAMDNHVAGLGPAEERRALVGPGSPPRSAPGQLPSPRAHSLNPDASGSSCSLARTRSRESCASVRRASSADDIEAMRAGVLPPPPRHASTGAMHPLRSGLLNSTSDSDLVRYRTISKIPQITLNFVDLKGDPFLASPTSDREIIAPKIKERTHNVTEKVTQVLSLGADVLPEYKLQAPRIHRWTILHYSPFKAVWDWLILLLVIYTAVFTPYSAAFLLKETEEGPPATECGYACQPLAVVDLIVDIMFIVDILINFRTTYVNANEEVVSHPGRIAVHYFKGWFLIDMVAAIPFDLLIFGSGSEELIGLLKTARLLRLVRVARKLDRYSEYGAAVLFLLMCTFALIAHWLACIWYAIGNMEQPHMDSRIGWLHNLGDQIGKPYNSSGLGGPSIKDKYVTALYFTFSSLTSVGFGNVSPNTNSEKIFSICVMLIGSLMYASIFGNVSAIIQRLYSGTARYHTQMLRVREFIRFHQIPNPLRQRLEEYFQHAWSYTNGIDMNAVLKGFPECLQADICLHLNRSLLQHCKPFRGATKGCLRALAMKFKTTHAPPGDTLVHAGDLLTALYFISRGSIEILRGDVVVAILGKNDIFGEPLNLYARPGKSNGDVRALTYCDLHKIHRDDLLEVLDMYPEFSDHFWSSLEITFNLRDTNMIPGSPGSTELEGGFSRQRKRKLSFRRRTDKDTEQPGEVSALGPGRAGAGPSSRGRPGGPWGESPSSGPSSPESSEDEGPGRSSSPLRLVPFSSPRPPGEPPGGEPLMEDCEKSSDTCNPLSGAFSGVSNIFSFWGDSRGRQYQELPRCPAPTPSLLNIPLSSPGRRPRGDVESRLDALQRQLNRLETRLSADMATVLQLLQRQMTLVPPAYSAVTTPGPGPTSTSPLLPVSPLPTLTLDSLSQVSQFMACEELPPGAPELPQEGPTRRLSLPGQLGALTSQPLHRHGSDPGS

C[C@@H]1CN(c2c(F)c(N)c3c(=O)c(C(=O)O)cn(C4CC4)c3c2F)C[C@H](C)N1 [SPARFLOXACIN]
IC50 [1]: > 250 µM | IC50 [2]: 33.6 µM | IC50 [3]: 46.9 µM | IC50 [4]: > 250 µM | IC50 [5]: 128 µM | IC50 [6]: 21.7 µM
